Laboratory results from patent US10577363B2, “Substituted piperidine compounds” (EPIZYME, INC., priority 2014, dated 2020).

Each compound was assayed against SMYD3 (Homo sapiens (Human), UniProt Q9H7B4) (assay: SMYD3 biochemical assay (SPA, 3H-SAM methylation of MEKK2 protein substrate)). Settings: read-out: SMYD3 Biochem IC50 (μM)*.
Procedure, shortened: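 SPA methyltransferase format: tag-cleaved human SMYD3, insect-cell GST-MEKK2 protein substrate, 3H-SAM donor, 30 min RT enzyme–compound preincubation, 100 uM cold SAM quench.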

Row | Compound | IC50
1 | C[C@@H]1CC(NC(=O)c2cc(C3CC3)on2)CCN1C(=O)C1CC12CCNCC2 (stereo partly drawn) [compound 136, 5-cyclopropyl-N-((2R)-2-methyl-1-(6-azaspiro[2.5]octane-1-carbonyl)piperidin-4-yl)isoxazole-3-carboxamide] | 0.759 µM
2 | C[C@@H]1CC(NC(=O)c2cc(C3CC3)on2)CCN1C(=O)[C@H]1CC[C@H](O)CC1 (stereo partly drawn) [compound 137, 5-cyclopropyl-N-((2R)-1-((1r,4R)-4-hydroxycyclohexane-1-carbonyl)-2-methylpiperidin-4-yl)isoxazole-3-carboxamide] | 41.2 µM
3 | C[C@H]1CC(NC(=O)c2cc(C3CC3)on2)CCN1C[C@H]1CC[C@H](N)CC1 (stereo partly drawn) [compound 138, N-((2S)-1-(((1r,4S)-4-aminocyclohexyl)methyl)-2-methylpiperidin-4-yl)-5-cyclopropylisoxazole-3-carboxamide] | 4.31 µM
4 | C[C@@H]1CC(NC(=O)c2cc(C3CC3)on2)CCN1C(=O)[C@H]1CC[C@H](N(C)C)CC1 (stereo partly drawn) [compound 139, 5-cyclopropyl-N-((2R)-1-((1r,4R)-4-(dimethylamino)cyclohexane-1-carbonyl)-2-methylpiperidin-4-yl)isoxazole-3-carboxamide] | 1.65 µM
5 | CC1CNCCC1CC(=O)N1CCC(NC(=O)c2cc(C3CC3)on2)C[C@H]1C (stereo partly drawn) [compound 140, 5-cyclopropyl-N-((2R)-2-methyl-1-(2-(3-methylpiperidin-4-yl)acetyl)piperidin-4-yl)isoxazole-3-carboxamide] | 0.842 µM
6 | CC1CC(CC(=O)N2CCC(NC(=O)c3cc(C4CC4)on3)C[C@@H]2C)CCN1 (stereo partly drawn) [compound 141, 5-cyclopropyl-N-((2S)-2-methyl-1-(2-(2-methylpiperidin-4-yl)acetyl)piperidin-4-yl)isoxazole-3-carboxamide] | 3.53 µM
7 | C[C@H]1CC(NC(=O)c2cc(C3CC3)on2)CCN1C(=O)CCCN (stereo partly drawn) [compound 142, N-((2S)-1-(4-aminobutanoyl)-2-methylpiperidin-4-yl)-5-cyclopropylisoxazole-3-carboxamide] | 3.65 µM
8 | C[C@@H]1CC(NC(=O)c2cc(C3CC3)on2)CCN1C(=O)[C@H]1CCC[C@@H](N)C1 (stereo partly drawn) [compound 143, N-((2R)-1-((1S,3R)-3-aminocyclohexane-1-carbonyl)-2-methylpiperidin-4-yl)-5-cyclopropylisoxazole-3-carboxamide] | 1.99 µM
9 | C[C@@H]1CC(NC(=O)c2cc(C3CC3)on2)CCN1C(=O)C1CC2(CCNC2)C1 (stereo partly drawn) [compound 144, 5-cyclopropyl-N-((2R)-2-methyl-1-(6-azaspiro[3.4]octane-2-carbonyl)piperidin-4-yl)isoxazole-3-carboxamide] | 0.546 µM
10 | N[C@@H]1CC[C@@H](C(=O)N2CCC(NC(=O)c3cc(C4CC4)on3)CC2)C1 [compound 145, N-(1-((1R,3R)-3-aminocyclopentane-1-carbonyl)piperidin-4-yl)-5-cyclopropylisoxazole-3-carboxamide] | 5.98 µM
11 | C[C@@H]1CN(C(=O)[C@H]2CC[C@H](N)CC2)CC[C@H]1NC(=O)c1cc(C2CC2)on1 [compound 146, N-((3R,4R)-1-((1r,4R)-4-aminocyclohexane-1-carbonyl)-3-methylpiperidin-4-yl)-5-cyclopropylisoxazole-3-carboxamide] | 2.28 µM
12 | C[C@@H]1CN(C(=O)CC2CCNCC2)CC[C@H]1NC(=O)c1cc(C2CC2)on1 [compound 147, 5-cyclopropyl-N-((3R,4R)-3-methyl-1-(2-(piperidin-4-yl)acetyl)piperidin-4-yl)isoxazole-3-carboxamide] | 1.53 µM
13 | CC1(NC(=O)c2cc(C3CC3)on2)CCN(C(=O)[C@H]2CC[C@H](N)CC2)CC1 [compound 150, N-(1-((1r,4r)-4-aminocyclohexane-1-carbonyl)-4-methylpiperidin-4-yl)-5-cyclopropylisoxazole-3-carboxamide] | 0.91 µM
14 | CCOC(=O)C1CN(C(=O)[C@H]2CC[C@H](N)CC2)CCC1NC(=O)c1cc(C2CC2)on1 (some centres unmarked) [compound 151, ethyl 1-((1r,4r)-4-aminocyclohexane-1-carbonyl)-4-(5-cyclopropylisoxazole-3-carboxamido)piperidine-3-carboxylate] | 3.54 µM
15 | N[C@H]1CC[C@H](C(=O)N2CCC(NC(=O)c3cc(C4CC4)on3)C(F)(F)C2)CC1 (some centres unmarked) [compound 152, N-(1-((1r,4r)-4-aminocyclohexane-1-carbonyl)-3,3-difluoropiperidin-4-yl)-5-cyclopropylisoxazole-3-carboxamide] | 2.25 µM
16 | CC1(NC(=O)c2cc(C3CC3)on2)CCN(C(=O)CC2CCNCC2)CC1 [compound 153, 5-cyclopropyl-N-(4-methyl-1-(2-(piperidin-4-yl)acetyl)piperidin-4-yl)isoxazole-3-carboxamide] | 0.848 µM
17 | O=C(NC1CCN(C(=O)CC2CCNCC2)CC1(F)F)c1cc(C2CC2)on1 (centres unmarked) [compound 154, 5-cyclopropyl-N-(3,3-difluoro-1-(2-(piperidin-4-yl)acetyl)piperidin-4-yl)isoxazole-3-carboxamide] | 1.56 µM
18 | CC1(C)CN(C(=O)[C@H]2CC[C@H](N)CC2)CCC1NC(=O)c1cc(C2CC2)on1 (some centres unmarked) [compound 155, N-(1-((1r,4r)-4-aminocyclohexane-1-carbonyl)-3,3-dimethylpiperidin-4-yl)-5-cyclopropylisoxazole-3-carboxamide] | 0.575 µM
19 | CC1(C)CN(C(=O)CC2CCNCC2)CCC1NC(=O)c1cc(C2CC2)on1 (centres unmarked) [compound 157, 5-cyclopropyl-N-(3,3-dimethyl-1-(2-(piperidin-4-yl)acetyl)piperidin-4-yl)isoxazole-3-carboxamide] | 0.521 µM
20 | CC1(NC(=O)c2cc(C3CC3)on2)CCN(C(=O)CCCN)CC1 [compound 158, N-(1-(4-aminobutanoyl)-4-methylpiperidin-4-yl)-5-cyclopropylisoxazole-3-carboxamide] | 7.34 µM
21 | CCOC(=O)[C@@H]1CC(NC(=O)c2cc(C3CC3)on2)CCN1C(=O)CCCN (stereo partly drawn) [compound 159, ethyl (2S)-1-(4-aminobutanoyl)-4-(5-cyclopropylisoxazole-3-carboxamido)piperidine-2-carboxylate] | 25.2 µM

Next, values leading:

Row | IC50 | Compound
22 | 2.23 µM | CCOC(=O)C1CN(C(=O)CCCN)CCC1NC(=O)c1cc(C2CC2)on1 (centres unmarked) [compound 160, ethyl 1-(4-aminobutanoyl)-4-(5-cyclopropylisoxazole-3-carboxamido)piperidine-3-carboxylate]
23 | 1.25 µM | CC1(C)CN(C(=O)CCCN)CCC1NC(=O)c1cc(C2CC2)on1 (centres unmarked) [compound 161, N-(1-(4-aminobutanoyl)-3,3-dimethylpiperidin-4-yl)-5-cyclopropylisoxazole-3-carboxamide]
24 | > 10 µM | N[C@H]1CC[C@H](C(=O)N2CCC(NC(=O)c3cc(C4CC4)on3)C[C@H]2c2ccccc2)CC1 (stereo partly drawn) [compound 162, N-((2S)-1-((1r,4S)-4-aminocyclohexane-1-carbonyl)-2-phenylpiperidin-4-yl)-5-cyclopropylisoxazole-3-carboxamide]
25 | 7.17 µM | N[C@H]1CC[C@H](C(=O)N2CCC(NC(=O)c3cc(C4CC4)on3)C[C@@H]2c2ccccc2)CC1 (stereo partly drawn) [compound 163, N-((2R)-1-((1r,4R)-4-aminocyclohexane-1-carbonyl)-2-phenylpiperidin-4-yl)-5-cyclopropylisoxazole-3-carboxamide]
26 | 5.91 µM | C[C@@H]1CC(NC(=O)c2cc(C3CC3)on2)CCN1C(=O)C(C)(C)C1CCNCC1 (stereo partly drawn) [compound 164, 5-cyclopropyl-N-((2R)-2-methyl-1-(2-methyl-2-(piperidin-4-yl)propanoyl)piperidin-4-yl)isoxazole-3-carboxamide]
27 | 4.73 µM | C[C@H]1CC(NC(=O)c2cc(C3CC3)on2)CCN1C(=O)C(C)(C)C1CCNCC1 (stereo partly drawn) [compound 165, 5-cyclopropyl-N-((2S)-2-methyl-1-(2-methyl-2-(piperidin-4-yl)propanoyl)piperidin-4-yl)isoxazole-3-carboxamide]
28 | 0.506 µM | CC1CC(CC(=O)N2CCC(NC(=O)c3cc(C4CC4)on3)C[C@H]2C)CCN1 (stereo partly drawn) [compound 166, 5-cyclopropyl-N-((2R)-2-methyl-1-(2-(2-methylpiperidin-4-yl)acetyl)piperidin-4-yl)isoxazole-3-carboxamide]
29 | 0.911 µM | C[C@@H]1CC(NC(=O)c2cc(C3CC3)on2)CCN1C(=O)CC1(O)CCNCC1 (stereo partly drawn) [compound 167, 5-cyclopropyl-N-((2R)-1-(2-(4-hydroxypiperidin-4-yl)acetyl)-2-methylpiperidin-4-yl)isoxazole-3-carboxamide]
30 | 3.18 µM | CCC1(C(=O)N2CCC(NC(=O)c3cc(C4CC4)on3)C[C@H]2C)CCNCC1 (stereo partly drawn) [compound 168, 5-cyclopropyl-N-((2R)-1-(4-ethylpiperidine-4-carbonyl)-2-methylpiperidin-4-yl)isoxazole-3-carboxamide]
31 | 3.77 µM | CCC1(C(=O)N2CCC(NC(=O)c3cc(C4CC4)on3)C[C@@H]2C)CCNCC1 (stereo partly drawn) [compound 169, 5-cyclopropyl-N-((2S)-1-(4-ethylpiperidine-4-carbonyl)-2-methylpiperidin-4-yl)isoxazole-3-carboxamide]
32 | 0.677 µM | C[C@@H]1CC(NC(=O)c2cc(C3CC3)on2)CCN1C(=O)C1(F)CCNCC1 (stereo partly drawn) [compound 170, 5-cyclopropyl-N-((2R)-1-(4-fluoropiperidine-4-carbonyl)-2-methylpiperidin-4-yl)isoxazole-3-carboxamide]
33 | 3.11 µM | C[C@@H]1C[C@H](NC(=O)c2cc(C3CC3)on2)CCN1C(=O)CCCN [compound 171, N-((2R,4R)-1-(4-aminobutanoyl)-2-methylpiperidin-4-yl)-5-cyclopropylisoxazole-3-carboxamide]
34 | 6.78 µM | C[C@@H]1C[C@H](NC(=O)c2cc(C3CC3)on2)CCN1C(=O)CC(O)CN (stereo partly drawn) [compound 172, N-((2R,4R)-1-(4-amino-3-hydroxybutanoyl)-2-methylpiperidin-4-yl)-5-cyclopropylisoxazole-3-carboxamide]
35 | 5.26 µM | C[C@H]1CC(NC(=O)c2cc(C3CC3)on2)CCN1C(=O)CC(O)CN (stereo partly drawn) [compound 173, N-((2S)-1-(4-amino-3-hydroxybutanoyl)-2-methylpiperidin-4-yl)-5-cyclopropylisoxazole-3-carboxamide]
